Tests used:
[1] = test system: Staphylococcus aureus FDA 209P; experiment: Antibacterial MIC, standard serial dilution; assay type: cell-based; settings: nutrient agar, 37° C., 17 hours, as free base
[2] = test system: Staphylococcus aureus Smith; experiment: Antibacterial MIC, standard serial dilution; assay type: cell-based; settings: nutrient agar, 37° C., 17 hours, as free base
[3] = test system: Staphylococcus aureus Ap01; experiment: Antibacterial MIC, standard serial dilution; assay type: cell-based; settings: nutrient agar, 37° C., 17 hours, as free base
[4] = test system: Staphylococcus epidermidis 109; experiment: Antibacterial MIC, standard serial dilution; assay type: cell-based; settings: nutrient agar, 37° C., 17 hours, as free base
[5] = test system: Micrococcus flavus FDA 16; experiment: Antibacterial MIC, standard serial dilution; assay type: cell-based; settings: nutrient agar, 37° C., 17 hours, as free base
[6] = test system: Sarcina lutea PCI 1001; experiment: Antibacterial MIC, standard serial dilution; assay type: cell-based; settings: nutrient agar, 37° C., 17 hours, as free base
[7] = test system: Bacillus anthracis; assay type: cell-based; settings: nutrient agar, 37° C., 17 hours, as free base
[8] = test system: Bacillus subtilis PCI 219; experiment: Antibacterial MIC, standard serial dilution; assay type: cell-based; settings: nutrient agar, 37° C., 17 hours, as free base
[9] = test system: Bacillus subtilis NRRL B-558; experiment: Antibacterial MIC, standard serial dilution; assay type: cell-based; settings: nutrient agar, 37° C., 17 hours, as free base
[10] = test system: Bacillus cereus ATCC 10702; experiment: Antibacterial MIC, standard serial dilution; assay type: cell-based; settings: nutrient agar, 37° C., 17 hours, as free base
[11] = test system: Corynebacterium bovis 1810; experiment: Antibacterial MIC, standard serial dilution; assay type: cell-based; settings: nutrient agar, 37° C., 17 hours, as free base
[12] = test system: Mycobacterium smegmatis ATCC 607; experiment: Antibacterial MIC, standard serial dilution; assay type: cell-based; settings: nutrient agar, 37° C., 17 hours, as free base
[13] = test system: Escherichia coli NIHJ; experiment: Antibacterial MIC, standard serial dilution; assay type: cell-based; settings: nutrient agar, 37° C., 17 hours, as free base
[14] = test system: Escherichia coli K-12; experiment: Antibacterial MIC, standard serial dilution; assay type: cell-based; settings: nutrient agar, 37° C., 17 hours, as free base
[15] = test system: Escherichia coli K-12 R5; experiment: Antibacterial MIC, standard serial dilution; assay type: cell-based; settings: nutrient agar, 37° C., 17 hours, as free base
[16] = test system: Escherichia coli K-12 R388; experiment: Antibacterial MIC, standard serial dilution; assay type: cell-based; settings: nutrient agar, 37° C., 17 hours, as free base
[17] = test system: Escherichia coli K-12 J5R11-2; experiment: Antibacterial MIC, standard serial dilution; assay type: cell-based; settings: nutrient agar, 37° C., 17 hours, as free base
[18] = test system: Escherichia coli K-12 ML1629; experiment: Antibacterial MIC, standard serial dilution; assay type: cell-based; settings: nutrient agar, 37° C., 17 hours, as free base
[19] = test system: Escherichia coli K-12 ML1630; experiment: Antibacterial MIC, standard serial dilution; assay type: cell-based; settings: nutrient agar, 37° C., 17 hours, as free base
[20] = test system: Escherichia coli K-12 ML1410; experiment: Antibacterial MIC, standard serial dilution; assay type: cell-based; settings: nutrient agar, 37° C., 17 hours, as free base
[21] = test system: Escherichia coli K-12 ML1410 R81; experiment: Antibacterial MIC, standard serial dilution; assay type: cell-based; settings: nutrient agar, 37° C., 17 hours, as free base
[22] = test system: Escherichia coli K-12 LA290 R55; experiment: Antibacterial MIC, standard serial dilution; assay type: cell-based; settings: nutrient agar, 37° C., 17 hours, as free base
[23] = test system: Escherichia coli K-12 LA290 R56; experiment: Antibacterial MIC, standard serial dilution; assay type: cell-based; settings: nutrient agar, 37° C., 17 hours, as free base
[24] = test system: Escherichia coli K-12 LA290 R64; experiment: Antibacterial MIC, standard serial dilution; assay type: cell-based; settings: nutrient agar, 37° C., 17 hours, as free base
[25] = test system: Escherichia coli W677; experiment: Antibacterial MIC, standard serial dilution; assay type: cell-based; settings: nutrient agar, 37° C., 17 hours, as free base
[26] = test system: Escherichia coli JR66/W677; experiment: Antibacterial MIC, standard serial dilution; assay type: cell-based; settings: nutrient agar, 37° C., 17 hours, as free base
[27] = test system: Escherichia coli K-12 C600 R135; experiment: Antibacterial MIC, standard serial dilution; assay type: cell-based; settings: nutrient agar, 37° C., 17 hours, as free base
[28] = test system: Escherichia coli JR225; experiment: Antibacterial MIC, standard serial dilution; assay type: cell-based; settings: nutrient agar, 37° C., 17 hours, as free base
[29] = test system: Klebsiella pneumoniae PCI602; experiment: Antibacterial MIC, standard serial dilution; assay type: cell-based; settings: nutrient agar, 37° C., 17 hours, as free base
[30] = test system: Klebsiella pneumoniae 22#3038; experiment: Antibacterial MIC, standard serial dilution; assay type: cell-based; settings: nutrient agar, 37° C., 17 hours, as free base
[31] = test system: Shigella dysenteriae JS11910; experiment: Antibacterial MIC, standard serial dilution; assay type: cell-based; settings: nutrient agar, 37° C., 17 hours, as free base
[32] = test system: Salmonella typhi T-63; experiment: Antibacterial MIC, standard serial dilution; assay type: cell-based; settings: nutrient agar, 37° C., 17 hours, as free base
[33] = test system: Salmonella enteritidis 1891; experiment: Antibacterial MIC, standard serial dilution; assay type: cell-based; settings: nutrient agar, 37° C., 17 hours, as free base
[34] = test system: Proteus vulgaris 0X19; experiment: Antibacterial MIC, standard serial dilution; assay type: cell-based; settings: nutrient agar, 37° C., 17 hours, as free base
[35] = test system: Proteus rettgeri GN311; experiment: Antibacterial MIC, standard serial dilution; assay type: cell-based; settings: nutrient agar, 37° C., 17 hours, as free base
[36] = test system: Proteus rettgeri GN466; experiment: Antibacterial MIC, standard serial dilution; assay type: cell-based; settings: nutrient agar, 37° C., 17 hours, as free base
[37] = test system: Serratia marcescens; experiment: Antibacterial MIC, standard serial dilution; assay type: cell-based; settings: nutrient agar, 37° C., 17 hours, as free base
[38] = test system: Serratia sp. SOU; experiment: Antibacterial MIC, standard serial dilution; assay type: cell-based; settings: nutrient agar, 37° C., 17 hours, as free base
[39] = test system: Serratia sp. 4; experiment: Antibacterial MIC, standard serial dilution; assay type: cell-based; settings: nutrient agar, 37° C., 17 hours, as free base
[40] = test system: Providencia sp. Pv16; experiment: Antibacterial MIC, standard serial dilution; assay type: cell-based; settings: nutrient agar, 37° C., 17 hours, as free base
[41] = test system: Providencia sp. 2991; experiment: Antibacterial MIC, standard serial dilution; assay type: cell-based; settings: nutrient agar, 37° C., 17 hours, as free base
[42] = test system: Pseudomonas aeruginosa A3; experiment: Antibacterial MIC, standard serial dilution; assay type: cell-based; settings: nutrient agar, 37° C., 17 hours, as free base
[43] = test system: Pseudomonas aeruginosa No. 12; experiment: Antibacterial MIC, standard serial dilution; assay type: cell-based; settings: nutrient agar, 37° C., 17 hours, as free base
[44] = test system: Pseudomonas aeruginosa H9; experiment: Antibacterial MIC, standard serial dilution; assay type: cell-based; settings: nutrient agar, 37° C., 17 hours, as free base
[45] = test system: Pseudomonas aeruginosa H11; experiment: Antibacterial MIC, standard serial dilution; assay type: cell-based; settings: nutrient agar, 37° C., 17 hours, as free base
[46] = test system: Pseudomonas aeruginosa TI-13; experiment: Antibacterial MIC, standard serial dilution; assay type: cell-based; settings: nutrient agar, 37° C., 17 hours, as free base
[47] = test system: Pseudomonas aeruginosa GN315; experiment: Antibacterial MIC, standard serial dilution; assay type: cell-based; settings: nutrient agar, 37° C., 17 hours, as free base
[48] = test system: Pseudomonas aeruginosa 99; experiment: Antibacterial MIC, standard serial dilution; assay type: cell-based; settings: nutrient agar, 37° C., 17 hours, as free base
[49] = test system: Pseudomonas aeruginosa B-13; experiment: Antibacterial MIC, standard serial dilution; assay type: cell-based; settings: nutrient agar, 37° C., 17 hours, as free base
[50] = test system: Pseudomonas aeruginosa 21-75; experiment: Antibacterial MIC, standard serial dilution; assay type: cell-based; settings: nutrient agar, 37° C., 17 hours, as free base
[51] = test system: Pseudomonas aeruginosa PST1; experiment: Antibacterial MIC, standard serial dilution; assay type: cell-based; settings: nutrient agar, 37° C., 17 hours, as free base
[52] = test system: Pseudomonas aeruginosa ROS 134/PU21; experiment: Antibacterial MIC, standard serial dilution; assay type: cell-based; settings: nutrient agar, 37° C., 17 hours, as free base
[53] = test system: Pseudomonas aeruginosa K-Ps 102; experiment: Antibacterial MIC, standard serial dilution; assay type: cell-based; settings: nutrient agar, 37° C., 17 hours, as free base
[54] = test system: Pseudomonas maltophilia GN 907; experiment: Antibacterial MIC, standard serial dilution; assay type: cell-based; settings: nutrient agar, 37° C., 17 hours, as free base
[55] = test system: mice; experiment: Acute toxicity, intravenous administration in mice; assay type: in vivo

CNCC1CCC(N)C(OC2C(N)CCC(N(C)C(=O)CNC=N)C2O)O1.O.O.O.O.O=S(=O)(O)O.O=S(=O)(O)O (centres unmarked) [DBF, 3-demethoxy-2"-N-formimidoylistamycin B]
MIC [1]: 0.39 µg/mL
MIC [2]: < 0.20 µg/mL
MIC [3]: 0.39 µg/mL
MIC [4]: 0.20 µg/mL
MIC [5]: 0.39 µg/mL
MIC [6]: 0.39 µg/mL
MIC [7]: 0.39 µg/mL
MIC [8]: 0.20 µg/mL
MIC [9]: < 0.20 µg/mL
MIC [10]: 1.56 µg/mL
MIC [11]: < 0.20 µg/mL
MIC [12]: 0.39 µg/mL
MIC [13]: 0.20 µg/mL
MIC [14]: 0.39 µg/mL
MIC [15]: 0.78 µg/mL
MIC [16]: 0.39 µg/mL
MIC [17]: 0.78 µg/mL
MIC [18]: 0.39 µg/mL
MIC [19]: 1.56 µg/mL
MIC [20]: 1.56 µg/mL
MIC [21]: 0.39 µg/mL
MIC [22]: 0.78 µg/mL
MIC [23]: 0.39 µg/mL
MIC [24]: 0.78 µg/mL
MIC [25]: 0.39 µg/mL
MIC [26]: 0.39 µg/mL
MIC [27]: 6.25 µg/mL
MIC [28]: 0.39 µg/mL
MIC [29]: 0.78 µg/mL
MIC [30]: 1.56 µg/mL
MIC [31]: 1.56 µg/mL
MIC [32]: 0.39 µg/mL
MIC [33]: 1.56 µg/mL
MIC [34]: < 0.20 µg/mL
MIC [35]: 0.39 µg/mL
MIC [36]: < 0.20 µg/mL
MIC [37]: 0.78 µg/mL
MIC [38]: 12.5 µg/mL
MIC [39]: 12.5 µg/mL
MIC [40]: 0.78 µg/mL
MIC [41]: 1.56 µg/mL
MIC [42]: 0.39 µg/mL
MIC [43]: 25 µg/mL
MIC [44]: 25 µg/mL
MIC [45]: 50 µg/mL
MIC [46]: 12.5 µg/mL
MIC [47]: 50 µg/mL
MIC [48]: > 100 µg/mL
MIC [49]: > 100 µg/mL
MIC [50]: 50 µg/mL
MIC [51]: 25 µg/mL
MIC [52]: 100 µg/mL
MIC [53]: 25 µg/mL
MIC [54]: > 100 µg/mL
acute toxicity ([55]; mice, intravenous, in words): low toxicity
tolerated dose (all treated mice) ([55]; mouse, in vivo, iv, 336 h): 100 mg/kg
